Reference: US20130035329A1, “THERAPEUTICALLY ACTIVE COMPOSITIONS AND THEIR METHODS OF USE” (priority 2009, published 2013)

Legend:
[1] = tested on: recurrent glioma; conditions: recurrent glioma patients; bevacizumab used with irinotecan; cited from earlier work
[2] = target: IDH1 R132H (Homo sapiens, UniProt O75874, R132H); test: High Throughput Screening (HTS) for IDH1 R132H inhibitors (resazurin/NADPH fluorescence assay); type: biochemical; conditions: IDH1m; assay similar to Example 1; class symbols
Procedure: A compound described herein may be an inhibitor of IDH1m. […] B refers to an inhibitor of IDH1m with an IC50 between 1 μM and 50 μM. C refers to an inhibitor of IDH1m with an IC50 greater than 50 μM. D refers to a compound wherein an IC50 is not available.
Assays were conducted in a volume of 76 μl assay buffer (150 mM NaCl, 10 mM MgCl2, 20 mM Tris pH 7.5, 0.03% bovine serum albumin) as follows in a standard 384-well plate: To 25 ul of substrate mix (8 uM NADPH, 2 mM aKG), 1 μl of test compound was added in DMSO. The plate was centrifuged briefly, and then 25 μl of enzyme mix was added (0.2 μg/ml ICDH1 R132H) followed by a brief centrifugation and shake at 100 RPM. The reaction was incubated for 50 minutes at room temperature, then 25 μl of detection mix (30 μM resazurin, […]) was added and the mixture further incubated for 5 minutes at room temperature. The conversion of resazurin to resorufine was detected by fluorescent spectroscopy at Ex544 Em590 c/o 590.

Sequence of IDH1 R132H (O75874 whole entry R132H): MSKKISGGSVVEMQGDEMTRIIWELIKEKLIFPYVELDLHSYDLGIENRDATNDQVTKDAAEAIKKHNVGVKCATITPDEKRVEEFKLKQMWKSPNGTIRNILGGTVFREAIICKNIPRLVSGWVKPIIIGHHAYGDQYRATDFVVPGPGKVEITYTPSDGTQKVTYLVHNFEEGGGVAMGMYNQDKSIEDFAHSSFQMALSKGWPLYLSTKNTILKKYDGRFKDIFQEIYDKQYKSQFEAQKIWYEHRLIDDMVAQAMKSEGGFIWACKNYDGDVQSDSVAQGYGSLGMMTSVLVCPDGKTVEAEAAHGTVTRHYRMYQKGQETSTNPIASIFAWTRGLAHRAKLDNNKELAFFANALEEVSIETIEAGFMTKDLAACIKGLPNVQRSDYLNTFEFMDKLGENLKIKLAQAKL

| IC50 [2] [µM] | Compound | 6-month survival [1] [%] |
| --- | --- | --- |
|  | bevacizumab: "The anti-angiogenic agent bevacizumab"; listed among "exemplary antibodies" | 46 |
| 1 to 50 | CCCCc1ccc(NS(=O)(=O)c2ccc(C)c(C(=O)N3CCN(C(=O)OCC)CC3)c2)cc1 |  |
| > 50 | Cc1ccc(S(=O)(=O)Nc2ccc(Cl)cc2)cc1C(=O)N1CCN(c2ccccc2)CC1 |  |
| 1 to 50 | CCCCc1ccc(C(=O)Nc2cccc(C(=O)N3CCN(c4ccccc4OC)CC3)c2)cc1 |  |
| 1 to 50 | CCCCc1ccc(NS(=O)(=O)c2ccc(C)c(C(=O)N3CCN(c4ccncc4)CC3)c2)cc1 |  |
| 1 to 50 | CCc1ccc(NS(=O)(=O)c2ccc(C)c(C(=O)N3CCN(c4ccccc4OC)CC3)c2)cc1 |  |
| 1 to 50 | CCCCc1ccc(NS(=O)(=O)c2ccc(F)c(C(=O)N3CCN(c4ccccc4OC)CC3)c2)cc1 |  |
| > 50 | COc1ccccc1NS(=O)(=O)c1cccc(C(=O)N2CCN(c3ccccc3)CC2)c1 |  |
| 1 to 50 | CCCCc1ccc(NS(=O)(=O)c2ccc(C)c(C(=O)N3CCN(C(=O)c4cscn4)CC3)c2)cc1 |  |
| 1 to 50 | COc1ccccc1N1CCN(C(=O)c2cc(S(=O)(=O)Nc3ccc(C)cc3)ccc2C)CC1 |  |
| 1 to 50 | CCCCc1ccc(NS(=O)(=O)c2ccc(C)c(C(=O)N3CCN(c4ccccc4)CC3)c2)cc1 |  |
| > 50 | COc1ccccc1NS(=O)(=O)c1cccc(C(=O)N2CCCN(c3ccccc3OC)CC2)c1 |  |
| 1 to 50 | CCCCc1ccc(NS(=O)(=O)c2ccc(C)c(C(=O)N3CCN(Cc4cc(C)c(C)cc4C)CC3)c2)cc1 |  |
| 1 to 50 | CCCCc1ccc(NS(=O)(=O)c2ccc(C)c(C(=O)N3CCCN(c4ccccc4F)CC3)c2)cc1 |  |
| 1 to 50 | CCCCc1ccc(NS(=O)(=O)c2ccc(C)c(C(=O)N3CCN(CCCc4ccccc4)CC3)c2)cc1 |  |
| 1 to 50 | CCCCc1ccc(NS(=O)(=O)c2ccc(C)c(C(=O)N3CCN(c4cccnc4OC)CC3)c2)cc1 |  |
| 1 to 50 | CCOc1ccc(NS(=O)(=O)c2ccc(C)c(C(=O)N3CCN(c4ccccc4OC)CC3)c2)cc1 |  |
| 1 to 50 | CCCCc1ccc(NS(=O)(=O)c2ccc(C)c(C(=O)N3CCN(Cc4ccccc4CC)CC3)c2)cc1 |  |
| 1 to 50 | COc1ccccc1N1CCN(C(=O)c2cc(S(=O)(=O)Nc3ccc(OCc4cn(Cc5ccccc5)nn4)cc3)ccc2C)CC1 |  |

| IC50 [2] [µM] | Compound | 6-month survival [1] [%] |
| --- | --- | --- |
| 1 to 50 | COc1ccccc1N1CCN(C(=O)c2cc(S(=O)(=O)Nc3ccc(CCc4ccccc4)cc3)ccc2C)CC1 |  |
| 1 to 50 | CCCCc1ccc(NS(=O)(=O)c2cccc(C(=O)N3CCN(c4ncc(C)cc4Cl)CC3)c2)cc1 |  |
| 1 to 50 | CCCCc1ccc(NS(=O)(=O)c2cccc(C(=O)N3CCN(c4ncccn4)CC3)c2)cc1 |  |
| 1 to 50 | CCCCc1ccc(NS(=O)(=O)c2ccc(C)c(C(=O)N3CCN(c4ccccc4OCCc4ccccc4)CC3)c2)cc1 |  |
| 1 to 50 | CCCCc1ccc(NS(=O)(=O)c2ccc(C)c(C(=O)N3CCN(C(=O)Cc4ccccc4)CC3)c2)cc1 |  |
| 1 to 50 | CCCCc1ccc(NS(=O)(=O)c2ccc(C)c(C(=O)N3CCN(C(=O)NCC(C)C)CC3)c2)cc1 |  |
| > 50 | COc1ccccc1NS(=O)(=O)c1cccc(C(=O)N2CCN(c3ccccc3OC)CC2)c1 |  |
| 1 to 50 | CCCCc1ccc(NS(=O)(=O)c2ccc(C)c(C(=O)N3CCN(c4ccccc4C(C)C)CC3)c2)cc1 |  |
| > 50 | Cc1cc(F)ccc1NS(=O)(=O)c1cccc(C(=O)N2CCN(c3ccccn3)CC2)c1 |  |
| > 50 | Cc1cc(F)ccc1NS(=O)(=O)c1cccc(C(=O)N2CCN(c3ccccc3)CC2)c1 |  |
| 1 to 50 | COCCOCOc1ccc(NS(=O)(=O)c2ccc(C)c(C(=O)N3CCN(c4ccccc4C)CC3)c2)cc1 |  |
| 1 to 50 | CCCCc1ccc(NS(=O)(=O)c2ccc(C)c(C(=O)N3CCN(C(C)c4ccccc4)CC3)c2)cc1 (stereo not shown) |  |
| 1 to 50 | CCCCc1ccc(NS(=O)(=O)c2ccc(C)c(C(=O)N3CCN(c4ccc(F)c(OC)c4)CC3)c2)cc1 |  |
| 1 to 50 | CCCCc1ccc(NS(=O)(=O)c2ccc(C)c(C(=O)N3CCN(c4cccc(C(F)(F)F)c4)CC3)c2)cc1 |  |
| > 50 | COc1ccccc1N1CCN(C(=O)c2cc(S(=O)(=O)Nc3ccccc3F)ccc2C)CC1 |  |
| 1 to 50 | CCCc1ccc(NS(=O)(=O)c2cccc(C(=O)N3CCN(c4ccccc4)CC3)c2)cc1 |  |
| 1 to 50 | CCCCc1ccc(NS(=O)(=O)c2ccc(C)c(C(=O)N3CCN(c4ccc(Cl)cc4)CC3)c2)cc1 |  |
| 1 to 50 | CCCCc1ccc(NS(=O)(=O)c2ccc(N3CCCC3)c(C(=O)N3CCN(c4ccccc4OC)CC3)c2)cc1 |  |
| > 50 | COc1ccccc1N1CCCN(C(=O)c2cccc(S(=O)(=O)Nc3ccc(C)cc3)c2)CC1 |  |

| IC50 [2] [µM] | Compound | 6-month survival [1] [%] |
| --- | --- | --- |
| > 50 | COc1ccc(NS(=O)(=O)c2ccc(C)c(C(=O)N3CCN(c4ccccn4)CC3)c2)cc1 |  |
| 1 to 50 | COc1ccccc1N1CCN(C(=O)c2cc(S(=O)(=O)Nc3ccc(C)c4cccnc34)ccc2C)CC1 |  |
| 1 to 50 | COCOc1ccc(NS(=O)(=O)c2ccc(C)c(C(=O)N3CCN(c4ccccc4OC)CC3)c2)cc1 |  |
| > 50 | Cc1ccc(NS(=O)(=O)c2cccc(C(=O)N3CCN(c4ccccc4)CC3)c2)cc1 |  |
| > 50 | COc1ccccc1N1CCN(C(=O)c2cccc(S(=O)(=O)Nc3ccccc3)c2)CC1 |  |
| 1 to 50 | CCCCc1ccc(NS(=O)(=O)c2ccc(C)c(C(=O)N3CCN(CC(C)c4ccccc4)CC3)c2)cc1 (stereo not shown) |  |
| 1 to 50 | CCCCc1ccc(NS(=O)(=O)c2cccc(C(=O)N3CCN(c4ccccc4OC)CC3)c2)cc1 |  |
| 1 to 50 | CCCCc1ccc(NS(=O)(=O)c2ccc(C)c(C(=O)N3CCN(c4ccccc4-c4ccccc4)CC3)c2)cc1 |  |
| 1 to 50 | CCCCc1ccc(NS(=O)(=O)c2ccc(C)c(C(=O)N3CCN(c4ccc(OC)cc4O)CC3)c2)cc1 |  |
| 1 to 50 | CCCCc1ccc(NS(=O)(=O)c2cccc(C(=O)N3CCN(c4ccncc4)CC3)c2)cc1 |  |
| > 50 | O=C(c1cccc(S(=O)(=O)Nc2ccc(Cl)cc2)c1)N1CCN(c2ccccc2)CC1 |  |
| 1 to 50 | COc1ccccc1N1CCN(C(=O)c2cccc(S(=O)(=O)Nc3ccc(C(C)(C)C)cc3)c2)CC1 |  |
| 1 to 50 | CCCCc1ccc(NS(=O)(=O)c2ccc(C)c(C(=O)N3CCN(c4ccnc(N(C)C)c4)CC3)c2)cc1 |  |
| 1 to 50 | CCCCc1ccc(NS(=O)(=O)c2ccc(C)c(C(=O)N3CCN(c4ccccc4OCC(C)C)CC3)c2)cc1 |  |
| 1 to 50 | CCCCc1ccc(NS(=O)(=O)c2cccc(C(=O)N3CCN(c4ccnc5[nH]ccc45)CC3)c2)cc1 |  |
| 1 to 50 | COc1ccccc1N1CCN(C(=O)c2cc(S(=O)(=O)Nc3ccc(OCC4CC4)cc3)ccc2C)CC1 |  |
| 1 to 50 | COC(=O)C(C)Nc1ccc(NS(=O)(=O)c2ccc(C)c(C(=O)N3CCN(c4ccccc4OC)CC3)c2)cc1 (stereo not shown) |  |
| > 50 | CCOc1ccc(NS(=O)(=O)c2cccc(C(=O)N3CCCN(c4ccccc4OC)CC3)c2)cc1 |  |
| < 1 | CCCCc1ccc(NS(=O)(=O)c2ccc(C)c(C(=O)N3CCN(c4ccccc4OC)CC3)c2)cc1 |  |

| Compound | IC50 [2] [µM] | 6-month survival [1] [%] |
| --- | --- | --- |
| CCCCc1ccc(OC(=O)Nc2cccc(C(=O)N3CCN(c4ccccc4OC)CC3)c2)cc1 | > 50 |  |
